In patent EP4745137A1 (Gluetacs Therapeutics (Shanghai) Co., Ltd., priority 2023, dated 2025):
Where two headings read alike, the source gives them in different places.

Tests used:
[1] = target: T1, WEE1 (Homo sapiens, UniProt P30291+Q96SW2); test: Western-blot assay of substrate protein degradation in hPBMCs, WEE1; assay type: cell-based; conditions: 24 hours of compound treatment, compounds tested at 50 nM and 500 nM (concentration of the table not stated)
T1 construct: endogenous in cells; host or cells: hPBMCs (Milecell Biotechnologies)

[2] = system: Vcap; test: Tumor cell proliferation inhibition (CellTiter-Meiluncell Luminescent Cell Viability Assay), Vcap; conditions: Homo sapiens, 96 h, read-out: inhibitory activity (IC50, nM) against tumor cells proliferation, Vcap
[3] = system: SW620; test: Tumor cell proliferation inhibition (CellTiter-Meiluncell Luminescent Cell Viability Assay), SW620; conditions: Homo sapiens, SW-620, 96 h, read-out: inhibitory activity (IC50, nM) against tumor cells proliferation, SW620
[4] = target: T2, IKZF1 (Homo sapiens, UniProt Q13422+Q96SW2); test: Western-blot assay of substrate protein degradation in hPBMCs, IKZF1; assay type: cell-based; conditions: 24 hours of compound treatment, compounds tested at 50 nM and 500 nM (concentration of the table not stated)
T2 construct: endogenous in cells; host or cells: hPBMCs (Milecell Biotechnologies)

[5] = system: CCRF-CEM; test: Tumor cell proliferation inhibition (CellTiter-Meiluncell Luminescent Cell Viability Assay), CCRF-CEM; conditions: Homo sapiens, 96 h, read-out: inhibitory activity (IC50, nM) against tumor cells proliferation, CCRF-CEM
[6] = system: NCI-H1975; test: Tumor cell proliferation inhibition (CellTiter-Meiluncell Luminescent Cell Viability Assay), NCI-H1975; conditions: Homo sapiens, NCI-H1975, 96 h, read-out: inhibitory activity (IC50, nM) against tumor cells proliferation, H1975
[7] = system: Jurkat; test: Tumor cell proliferation inhibition (CellTiter-Meiluncell Luminescent Cell Viability Assay), Jurkat; conditions: Homo sapiens, 96 h, read-out: inhibitory activity (IC50, nM) against tumor cells proliferation, Jurkat
Protocol: (§1) The tumor cells used herein were cultured in a cell culture medium listed in table 2 at 37°C in an incubator with 5% CO2. Prior to experimentation, all cell lines used were correctly identified by STR profiling, and tested negative for mycoplasma contamination using a mycoplasma detection kit through routine screenings.
(§2) On the following day, the test compounds of the present disclosure were subjected to serial dilution. […] Subsequently, 0.5 µL of the test compound dilution was transferred into the 96-well plate containing the cells, with each well containing 100 µL of cell culture medium. […] Into the 96-well plate, the diluted test compounds and corresponding detection reagents were added, resulting in final test compound concentrations of 500 nM and 10 nM, respectively. The experimental procedure is described below using the diluted 2 µM test compound as an example.
(§3) After the cells were treated with the compounds of the present disclosure for a specified period (the treatment durations were shown in Table 3), the cell viability assay reagent was added to the culture medium according to the kit's instructions to determine cell viability. […] All controls were treated using the same procedure as the compounds of the present disclosure. The growth inhibition curves for the compounds of the present disclosure were plotted using Prism GraphPad software, and the IC50 values were calculated therefrom.

[8] = system: MM.1R; test: Tumor cell proliferation inhibition (CellTiter-Meiluncell Luminescent Cell Viability Assay), MM.1R; conditions: Homo sapiens, 96 h, read-out: inhibitory activity (IC50, nM) against tumor cells proliferation, MM.1R
[9] = system: Human acute T lymphocytic leukemia cells (Molt-4); test: Tumor cell proliferation inhibition (CellTiter-Meiluncell Luminescent Cell Viability Assay), Molt-4; conditions: MOLT-4, 96 h, read-out: inhibitory activity (IC50, nM) against tumor cells proliferation, Molt 4
[10] = target: T3, CK1α (Homo sapiens, UniProt P48729+Q96SW2); test: Western-blot assay of substrate protein degradation in hPBMCs, CK1α; assay type: cell-based; conditions: 24 hours of compound treatment, compounds tested at 50 nM and 500 nM (concentration of the table not stated)
T3 construct: endogenous in cells; host or cells: hPBMCs (Milecell Biotechnologies)

[11] = system: CAL-62; test: Tumor cell proliferation inhibition (CellTiter-Meiluncell Luminescent Cell Viability Assay), CAL-62; conditions: Homo sapiens, CAL-62, 96 h, read-out: inhibitory activity (IC50, nM) against tumor cells proliferation, CAL-62
Protocol: as §1, §2, §3

[12] = target: T4, IKZF2 (Homo sapiens, UniProt Q96SW2+Q9UKS7); test: Western-blot assay of substrate protein degradation in hPBMCs, IKZF2; assay type: cell-based; conditions: 24 hours of compound treatment, compounds tested at 50 nM and 500 nM (concentration of the table not stated)
T4 construct: endogenous in cells; host or cells: hPBMCs (Milecell Biotechnologies)

[13] = target: T5, human Cereblon WT GST-tagged protein (Homo sapiens, UniProt Q96SW2); test: CRBN-binding affinity by HTRF (CEREBLON BINDING kit)
T5 construct: purchased CISBIO 64BDCRBNPEH

[14] = system: SR; test: Tumor cell proliferation inhibition (CellTiter-Meiluncell Luminescent Cell Viability Assay), SR; conditions: Homo sapiens, 96 h, read-out: inhibitory activity (IC50, nM) against tumor cells proliferation, SR
Protocol: as §1
On the following day, the test compounds of the present disclosure were subjected to serial dilution. […] Subsequently, 0.5 µL of the test compound dilution was transferred into the 96-well plate containing the cells, with each well containing 100 µL of cell culture medium. […] Into the 96-well plate, the diluted test compounds and corresponding detection reagents were added, resulting in final test compound concentrations of 500 nM and 10 nM, respectively.
as §3

[15] = target: T6, GSPT1 (Homo sapiens, UniProt P15170+Q96SW2); test: Western-blot assay of substrate protein degradation in hPBMCs, GSPT1; assay type: cell-based; conditions: 24 hours of compound treatment, compounds tested at 50 nM and 500 nM (concentration of the table not stated)
T6 construct: endogenous in cells; host or cells: hPBMCs (Milecell Biotechnologies)

[16] = target: T7, IKZF3 (Homo sapiens, UniProt Q96SW2+Q9UKT9); test: Western-blot assay of substrate protein degradation in hPBMCs, IKZF3; assay type: cell-based; conditions: 24 hours of compound treatment, compounds tested at 50 nM and 500 nM (concentration of the table not stated)
T7 construct: endogenous in cells; host or cells: hPBMCs (Milecell Biotechnologies)

[17] = system: Human breast cancer cells (MDA-MB-231); test: Tumor cell proliferation inhibition (CellTiter-Meiluncell Luminescent Cell Viability Assay), MDA-MB-231; conditions: MDA-MB-231, 96 h, read-out: inhibitory activity (IC50, nM) against tumor cells proliferation, MDA-MB-231
[18] = system: MGC803; test: Tumor cell proliferation inhibition (CellTiter-Meiluncell Luminescent Cell Viability Assay), MGC803; conditions: Homo sapiens, MGC-803, 96 h, read-out: inhibitory activity (IC50, nM) against tumor cells proliferation, MGC803
[19] = HTRF inhibitory activity, CEREBLON BINDING kit; read-out: HTRF IC50

T4 sequence (Q9UKS7 whole entry): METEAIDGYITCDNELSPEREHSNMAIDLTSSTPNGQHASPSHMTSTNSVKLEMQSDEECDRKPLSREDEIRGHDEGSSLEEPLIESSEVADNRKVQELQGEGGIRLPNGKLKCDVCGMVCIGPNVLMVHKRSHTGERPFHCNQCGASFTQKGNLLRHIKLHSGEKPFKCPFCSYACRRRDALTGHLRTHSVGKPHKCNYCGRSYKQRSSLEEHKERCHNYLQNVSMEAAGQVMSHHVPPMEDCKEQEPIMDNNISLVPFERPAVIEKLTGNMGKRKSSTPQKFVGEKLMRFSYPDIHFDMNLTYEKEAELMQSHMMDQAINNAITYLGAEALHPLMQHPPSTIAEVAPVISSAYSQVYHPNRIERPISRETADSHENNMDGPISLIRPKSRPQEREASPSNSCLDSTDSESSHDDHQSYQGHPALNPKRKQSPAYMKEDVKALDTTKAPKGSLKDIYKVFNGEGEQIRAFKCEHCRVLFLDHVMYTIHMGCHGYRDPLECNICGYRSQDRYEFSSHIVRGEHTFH
T4 sequence (Q96SW2 whole entry): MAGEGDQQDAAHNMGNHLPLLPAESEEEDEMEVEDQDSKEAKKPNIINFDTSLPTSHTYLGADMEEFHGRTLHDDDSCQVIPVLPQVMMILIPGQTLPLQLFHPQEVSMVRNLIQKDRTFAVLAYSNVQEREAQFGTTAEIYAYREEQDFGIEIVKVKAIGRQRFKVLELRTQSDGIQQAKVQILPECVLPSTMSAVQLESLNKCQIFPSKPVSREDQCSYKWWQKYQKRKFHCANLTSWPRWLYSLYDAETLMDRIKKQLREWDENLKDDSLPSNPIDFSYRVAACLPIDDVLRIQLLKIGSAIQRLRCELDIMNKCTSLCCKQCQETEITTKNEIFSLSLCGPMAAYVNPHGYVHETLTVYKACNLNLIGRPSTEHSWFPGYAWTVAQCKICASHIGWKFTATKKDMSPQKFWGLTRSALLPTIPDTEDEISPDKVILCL
T4 sequence (Q16531 whole entry partner): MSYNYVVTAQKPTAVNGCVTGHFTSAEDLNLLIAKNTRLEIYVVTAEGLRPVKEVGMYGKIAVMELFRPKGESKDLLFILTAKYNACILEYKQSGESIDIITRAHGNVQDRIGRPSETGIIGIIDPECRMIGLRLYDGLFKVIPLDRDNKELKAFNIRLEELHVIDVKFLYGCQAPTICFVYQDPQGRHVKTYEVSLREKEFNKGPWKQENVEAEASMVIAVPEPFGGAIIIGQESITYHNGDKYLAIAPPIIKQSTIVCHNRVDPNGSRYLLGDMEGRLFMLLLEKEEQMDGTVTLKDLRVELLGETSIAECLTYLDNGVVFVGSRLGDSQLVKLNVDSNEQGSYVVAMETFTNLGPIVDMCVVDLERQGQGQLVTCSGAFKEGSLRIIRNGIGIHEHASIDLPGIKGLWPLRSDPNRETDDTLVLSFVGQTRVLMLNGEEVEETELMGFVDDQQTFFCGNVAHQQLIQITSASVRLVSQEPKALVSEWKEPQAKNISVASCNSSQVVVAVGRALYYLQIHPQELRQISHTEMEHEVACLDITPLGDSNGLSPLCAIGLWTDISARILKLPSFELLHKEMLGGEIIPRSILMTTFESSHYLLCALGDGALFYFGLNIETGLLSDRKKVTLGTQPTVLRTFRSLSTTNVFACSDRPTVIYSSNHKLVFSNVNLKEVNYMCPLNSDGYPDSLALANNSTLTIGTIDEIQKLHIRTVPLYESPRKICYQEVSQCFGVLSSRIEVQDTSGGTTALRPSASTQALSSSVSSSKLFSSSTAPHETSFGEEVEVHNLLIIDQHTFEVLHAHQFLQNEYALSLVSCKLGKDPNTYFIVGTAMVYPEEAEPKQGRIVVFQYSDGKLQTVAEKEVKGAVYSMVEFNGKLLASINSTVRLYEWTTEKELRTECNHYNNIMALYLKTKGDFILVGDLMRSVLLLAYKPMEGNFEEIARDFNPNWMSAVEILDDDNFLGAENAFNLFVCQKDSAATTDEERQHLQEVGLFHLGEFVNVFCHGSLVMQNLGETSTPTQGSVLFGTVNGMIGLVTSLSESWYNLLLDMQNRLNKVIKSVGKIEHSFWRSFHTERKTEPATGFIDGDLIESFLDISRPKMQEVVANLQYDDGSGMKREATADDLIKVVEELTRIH
T3 sequence (P48729 whole entry): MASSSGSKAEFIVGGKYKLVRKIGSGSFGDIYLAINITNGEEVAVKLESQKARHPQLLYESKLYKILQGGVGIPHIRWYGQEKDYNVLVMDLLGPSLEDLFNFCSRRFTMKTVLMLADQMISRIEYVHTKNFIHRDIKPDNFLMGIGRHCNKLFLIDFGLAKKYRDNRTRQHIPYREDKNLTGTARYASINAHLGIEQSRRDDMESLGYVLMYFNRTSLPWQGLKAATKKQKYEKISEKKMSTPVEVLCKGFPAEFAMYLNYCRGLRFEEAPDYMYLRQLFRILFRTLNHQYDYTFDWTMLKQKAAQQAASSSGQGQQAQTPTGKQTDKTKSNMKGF
T3 sequence (Q96SW2 whole entry): as the sequence (Q96SW2 whole entry) above
T3 sequence (Q16531 whole entry partner): as the sequence (Q16531 whole entry partner) above
T1 sequence (P30291 whole entry): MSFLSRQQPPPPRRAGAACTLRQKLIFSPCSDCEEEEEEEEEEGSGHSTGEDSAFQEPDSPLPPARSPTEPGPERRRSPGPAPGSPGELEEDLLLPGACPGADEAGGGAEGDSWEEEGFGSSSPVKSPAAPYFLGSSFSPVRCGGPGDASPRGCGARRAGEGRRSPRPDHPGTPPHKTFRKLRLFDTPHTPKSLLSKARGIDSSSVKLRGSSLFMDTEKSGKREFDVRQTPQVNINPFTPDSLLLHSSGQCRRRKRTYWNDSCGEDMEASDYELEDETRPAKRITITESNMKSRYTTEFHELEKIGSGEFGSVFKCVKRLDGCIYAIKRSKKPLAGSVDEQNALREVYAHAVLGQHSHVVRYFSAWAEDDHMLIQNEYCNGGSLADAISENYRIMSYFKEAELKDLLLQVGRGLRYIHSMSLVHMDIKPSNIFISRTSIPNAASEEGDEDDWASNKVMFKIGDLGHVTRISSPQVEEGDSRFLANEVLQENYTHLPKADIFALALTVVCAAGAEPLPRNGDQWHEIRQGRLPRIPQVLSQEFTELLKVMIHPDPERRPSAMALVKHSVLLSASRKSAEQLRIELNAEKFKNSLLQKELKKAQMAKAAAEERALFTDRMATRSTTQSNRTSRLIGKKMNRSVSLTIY
T1 sequence (Q96SW2 whole entry): as the sequence (Q96SW2 whole entry) above
T1 sequence (Q16531 whole entry partner): as the sequence (Q16531 whole entry partner) above
T2 sequence (Q13422 whole entry): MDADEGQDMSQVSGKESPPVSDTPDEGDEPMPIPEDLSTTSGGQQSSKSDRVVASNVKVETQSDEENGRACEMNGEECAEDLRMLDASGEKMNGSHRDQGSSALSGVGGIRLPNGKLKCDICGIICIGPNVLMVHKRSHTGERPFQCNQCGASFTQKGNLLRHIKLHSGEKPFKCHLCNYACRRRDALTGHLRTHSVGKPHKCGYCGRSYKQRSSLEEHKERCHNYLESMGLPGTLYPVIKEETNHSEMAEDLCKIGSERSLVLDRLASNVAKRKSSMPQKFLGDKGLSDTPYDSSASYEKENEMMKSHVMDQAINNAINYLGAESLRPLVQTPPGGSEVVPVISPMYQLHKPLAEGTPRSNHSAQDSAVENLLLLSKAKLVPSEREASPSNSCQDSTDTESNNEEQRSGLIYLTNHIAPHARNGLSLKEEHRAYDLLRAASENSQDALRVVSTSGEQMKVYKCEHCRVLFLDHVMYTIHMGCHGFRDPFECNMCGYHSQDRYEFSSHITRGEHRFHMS
T2 sequence (Q96SW2 whole entry): as the sequence (Q96SW2 whole entry) above
T2 sequence (Q16531 whole entry partner): as the sequence (Q16531 whole entry partner) above
T5 sequence (Q96SW2 whole entry): as the sequence (Q96SW2 whole entry) above
T7 sequence (Q9UKT9 whole entry): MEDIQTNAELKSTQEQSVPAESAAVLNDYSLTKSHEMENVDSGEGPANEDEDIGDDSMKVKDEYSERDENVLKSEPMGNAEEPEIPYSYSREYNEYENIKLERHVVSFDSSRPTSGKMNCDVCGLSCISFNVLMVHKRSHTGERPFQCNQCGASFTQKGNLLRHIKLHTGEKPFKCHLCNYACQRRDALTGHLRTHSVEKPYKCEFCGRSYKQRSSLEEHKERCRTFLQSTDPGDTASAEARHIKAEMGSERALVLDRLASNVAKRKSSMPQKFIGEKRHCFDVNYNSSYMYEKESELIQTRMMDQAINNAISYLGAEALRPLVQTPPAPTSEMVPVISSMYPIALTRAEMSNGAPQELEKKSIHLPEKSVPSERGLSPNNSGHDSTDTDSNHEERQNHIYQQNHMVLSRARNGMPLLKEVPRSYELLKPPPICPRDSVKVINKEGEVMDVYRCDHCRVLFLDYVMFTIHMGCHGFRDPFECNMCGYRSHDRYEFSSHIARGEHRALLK
T7 sequence (Q96SW2 whole entry): as the sequence (Q96SW2 whole entry) above
T7 sequence (Q16531 whole entry partner): as the sequence (Q16531 whole entry partner) above

O=C1CCC(N2Cc3cc(CN4CCN(c5ccc(Cl)cn5)CC4)ccc3C2=O)C(=O)N1 (stereo not drawn) [GT-04431, 3-(5-((4-(5-chloropyridin-2-yl)piperazin-1-yl)methyl)-1-oxoisoindolin-2-yl)piperidine-2,6-dione]
Weel substrate protein remaining % [1]: A (0% ≤ substrate protein remaining % ≤ 80%)
IC50 [2]: 10 to 50 nM
IC50 [3]: 50 to 100 nM
IKZF 1 substrate protein remaining % [4]: A (0% ≤ substrate protein remaining % ≤ 80%)
IC50 [5]: 1 to 5 nM
IC50 [6]: 50 to 100 nM
IC50 [7]: 1 to 5 nM
IC50 [8]: 5 to 10 nM
IC50 [9]: 10 to 50 nM
CK1a substrate protein remaining % [10]: A (0% ≤ substrate protein remaining % ≤ 80%)
IC50 [11]: 5 to 10 nM
IKZF2 substrate protein remaining % [12]: A (0% ≤ substrate protein remaining % ≤ 80%)
IC50 [13, 19]: 500 to 1000 nM
IC50 [14]: 100 to 500 nM
GSPT1 substrate protein remaining % [15]: A (0% ≤ substrate protein remaining % ≤ 80%)
IKZF3 substrate protein remaining % [16]: A (0% ≤ substrate protein remaining % ≤ 80%)
IC50 [17]: 50 to 100 nM
IC50 [18]: 50 to 100 nM

O=C1CCC(N2Cc3cc(CN4CCN(c5ccccc5Cl)CC4)ccc3C2=O)C(=O)N1 (stereo not drawn) [GT-04454, 3-(5-((4-(2-chlorophenyl)piperazin-1-yl)methyl)-1-oxoisoindolin-2-yl)piperidine-2,6-dione]
Weel substrate protein remaining % [1]: A (0% ≤ substrate protein remaining % ≤ 80%)
IC50 [2]: 10 to 50 nM
IC50 [3]: 100 to 500 nM
IKZF 1 substrate protein remaining % [4]: A (0% ≤ substrate protein remaining % ≤ 80%)
IC50 [5]: 10 to 50 nM
IC50 [6]: 100 to 500 nM
IC50 [7]: 5 to 10 nM
IC50 [8]: 10 to 50 nM
IC50 [9]: 10 to 50 nM
CK1a substrate protein remaining % [10]: A (0% ≤ substrate protein remaining % ≤ 80%)
IC50 [11]: 10 to 50 nM
IKZF2 substrate protein remaining % [12]: A (0% ≤ substrate protein remaining % ≤ 80%)
IC50 [13, 19]: 500 to 1000 nM
IC50 [14]: 100 to 500 nM
GSPT1 substrate protein remaining % [15]: A (0% ≤ substrate protein remaining % ≤ 80%)
IKZF3 substrate protein remaining % [16]: A (0% ≤ substrate protein remaining % ≤ 80%)
IC50 [17]: 100 to 500 nM
IC50 [18]: 100 to 500 nM

O=C1CCC(N2Cc3cc(CN4CCN(c5cc(F)cc(F)c5)CC4)ccc3C2=O)C(=O)N1 (stereo not drawn) [GT-04496, 3-(5-((4-(3,5-difluorophenyl)piperazin-1-yl)methyl)-1-oxoisoindolin-2-yl)piperidine-2,6-dione]
Weel substrate protein remaining % [1]: B (80%< substrate protein remaining %≤ 100%)
IC50 [2]: 10 to 50 nM
IC50 [3]: 100 to 500 nM
IKZF 1 substrate protein remaining % [4]: B (80%< substrate protein remaining %≤ 100%)
IC50 [5]: 5 to 10 nM
IC50 [6]: 100 to 500 nM
IC50 [7]: 5 to 10 nM
IC50 [8]: 10 to 50 nM
IC50 [9]: 5 to 10 nM
CK1a substrate protein remaining % [10]: A (0% ≤ substrate protein remaining % ≤ 80%)
IC50 [11]: 10 to 50 nM
IKZF2 substrate protein remaining % [12]: A (0% ≤ substrate protein remaining % ≤ 80%)
IC50 [13, 19]: 500 to 1000 nM
IC50 [14]: 100 to 500 nM
GSPT1 substrate protein remaining % [15]: A (0% ≤ substrate protein remaining % ≤ 80%)
IKZF3 substrate protein remaining % [16]: B (80%< substrate protein remaining %≤ 100%)
IC50 [17]: 100 to 500 nM
IC50 [18]: 100 to 500 nM

O=C1CCC(N2Cc3cc(CN4CCN(c5ccc(Br)cc5)CC4)ccc3C2=O)C(=O)N1 (stereo not drawn)
Weel substrate protein remaining % [1]: B (80%< substrate protein remaining %≤ 100%)
IC50 [2]: 10 to 50 nM
IC50 [3]: 100 to 500 nM
IKZF 1 substrate protein remaining % [4]: B (80%< substrate protein remaining %≤ 100%)
IC50 [5]: 5 to 10 nM
IC50 [6]: 100 to 500 nM
IC50 [7]: 1 to 5 nM
IC50 [8]: 5 to 10 nM
IC50 [9]: 5 to 10 nM
CK1a substrate protein remaining % [10]: A (0% ≤ substrate protein remaining % ≤ 80%)
IC50 [11]: 10 to 50 nM
IKZF2 substrate protein remaining % [12]: B (80%< substrate protein remaining %≤ 100%)
IC50 ([13]; read-out: HTRF IC50; HTRF inhibitory activity, CEREBLON BINDING kit): 500 to 1000 nM
IC50 [14]: 100 to 500 nM
GSPT1 substrate protein remaining % [15]: A (0% ≤ substrate protein remaining % ≤ 80%)
IKZF3 substrate protein remaining % [16]: B (80%< substrate protein remaining %≤ 100%)
IC50 [17]: 100 to 500 nM
IC50 [18]: 100 to 500 nM

O=C1CCC(N2Cc3cc(CN4CCN(c5ccc(Cl)cc5)CC4)ccc3C2=O)C(=O)N1 (stereo not drawn) [GT-04455, 3-(5-((4-(4-chlorophenyl)piperazin-1-yl)methyl)-1-oxoisoindolin-2-yl)piperidine-2,6-dione]
Weel substrate protein remaining % [1]: A (0% ≤ substrate protein remaining % ≤ 80%)
IC50 [2]: 10 to 50 nM
IC50 [3]: 10 to 50 nM
IKZF 1 substrate protein remaining % [4]: A (0% ≤ substrate protein remaining % ≤ 80%)
IC50 [5]: 1 to 5 nM
IC50 [6]: 50 to 100 nM
IC50 [7]: 1 to 5 nM
IC50 [8]: 5 to 10 nM
IC50 [9]: 1 to 5 nM
CK1a substrate protein remaining % [10]: A (0% ≤ substrate protein remaining % ≤ 80%)
IC50 [11]: 5 to 10 nM
IKZF2 substrate protein remaining % [12]: A (0% ≤ substrate protein remaining % ≤ 80%)
IC50 [13, 19]: 500 to 1000 nM
IC50 [14]: 100 to 500 nM
GSPT1 substrate protein remaining % [15]: A (0% ≤ substrate protein remaining % ≤ 80%)
IKZF3 substrate protein remaining % [16]: A (0% ≤ substrate protein remaining % ≤ 80%)
IC50 [17]: 50 to 100 nM
IC50 [18]: 50 to 100 nM

O=C1CCC(N2Cc3cc(CN4CCN(c5cccc(Br)c5)CC4)ccc3C2=O)C(=O)N1 (stereo not drawn) [GT-04467, 3-(5-((4-(3-bromophenyl)piperazin-1-yl)methyl)-1-oxoisoindolin-2-yl)piperidine-2,6-dione]
Weel substrate protein remaining % [1]: A (0% ≤ substrate protein remaining % ≤ 80%)
IC50 [2]: 5 to 10 nM
IC50 [3]: 10 to 50 nM
IKZF 1 substrate protein remaining % [4]: A (0% ≤ substrate protein remaining % ≤ 80%)
IC50 [5]: 1 to 5 nM
IC50 [6]: 10 to 50 nM
IC50 [7]: 1 to 5 nM
IC50 [8]: 1 to 5 nM
IC50 [9]: 1 to 5 nM
CK1a substrate protein remaining % [10]: A (0% ≤ substrate protein remaining % ≤ 80%)
IC50 [11]: 1 to 5 nM
IKZF2 substrate protein remaining % [12]: A (0% ≤ substrate protein remaining % ≤ 80%)
IC50 [13, 19]: 500 to 1000 nM
IC50 [14]: 10 to 50 nM
GSPT1 substrate protein remaining % [15]: A (0% ≤ substrate protein remaining % ≤ 80%)
IKZF3 substrate protein remaining % [16]: A (0% ≤ substrate protein remaining % ≤ 80%)
IC50 [17]: 10 to 50 nM
IC50 [18]: 10 to 50 nM

O=C1CCC(N2Cc3cc(CN4CCN(c5ccc(F)cc5)CC4)ccc3C2=O)C(=O)N1 (stereo not drawn) [GT-04453, 3-(5-((4-(4-fluorophenyl)piperazin-1-yl)methyl)-1-oxoisoindolin-2-yl)piperidine-2,6-dione]
Weel substrate protein remaining % [1]: A (0% ≤ substrate protein remaining % ≤ 80%)
IC50 [2]: 50 to 100 nM
IC50 [3]: 100 to 500 nM
IKZF 1 substrate protein remaining % [4]: A (0% ≤ substrate protein remaining % ≤ 80%)
IC50 [5]: 5 to 10 nM
IC50 [6]: 100 to 500 nM
IC50 [7]: 5 to 10 nM
IC50 [8]: 10 to 50 nM
IC50 [9]: 10 to 50 nM
CK1a substrate protein remaining % [10]: A (0% ≤ substrate protein remaining % ≤ 80%)
IC50 [11]: 10 to 50 nM
IKZF2 substrate protein remaining % [12]: A (0% ≤ substrate protein remaining % ≤ 80%)
IC50 [13, 19]: 1000 to 1500 nM
IC50 [14]: 500 to 1000 nM
GSPT1 substrate protein remaining % [15]: A (0% ≤ substrate protein remaining % ≤ 80%)
IKZF3 substrate protein remaining % [16]: A (0% ≤ substrate protein remaining % ≤ 80%)
IC50 [17]: 100 to 500 nM
IC50 [18]: 100 to 500 nM
